From patent US8236523B2, “Camp reporters and high throughput assays” (The Johns Hopkins University, priority 2004, dated 2012)
Entries after “also recorded” stand apart in the source; their conditions may differ.

Experiments:
Format in all cases: cell-based
[1] = test system: cAMP; test: Dual-emission ratio (FRET) imaging of Epac-based cAMP reporters (ICUE1 and targeted fusions) in HEK-293 cells; settings: for increase in the ratio of cyan to yellow emissions (FRET response): HEK293 cells expressing ICUE1, 10 μM ISO, 50 μM FSK, 10 μM PGE1, 300 μM 8-pCPT-2′-O-Me-cAMP, average ± S.E.M; for increase in emission ratio of cyan to yellow upon cAMP elevations: ECFP/citrine reporters with truncated Epac2, HEK-293 cells
Protocol: Cell Culture. […] Cells were then transfected with FuGENE-6 transfection reagent (Roche) or calcium phosphate and allowed to grow for 12-24 hours before imaging.
Imaging. Cells were washed twice with Hanks' balanced salt solution buffer after 12- to 24-h incubation at 37° C. culture medium. Cells were maintained in buffer in the dark at room temperature with addition of isoproterenol (Aldrich), forskolin (Calbiochem), Prostaglandin E1 (PGE1) (Sigma), and 8-(4-chloro-phenylthio)-2′-O-methyl adenosine 3′,5′-monophosphate (8-pCPT-2′-O-Me-cAMP) (Axxora Biolog) as indicated. Cells were also treated with P-(4,5-dimethoxy-2-nitrobenzyl) adenosine 3′,5′-monophosphate (DMNB-cAMP) (Molecular Probe).
Cells were imaged on a Zeiss Axiovert 200M microscope with a cooled charge-coupled device camera MicroMAX BFT512 (Roper Scientific) controlled by METAFLUOR 6.2 software (Universal Imaging). Dual-emission ratio imaging used a 420DF20 excitation filter, a 450DRLP dichroic mirror and two emission filters (475DF40 for ECFP, 535DF25 for citrine) alternated by a filter changer Lambda 10-2 (Sutter Instruments). Exposure time was 100-500 ms and images were taken every 8-30 s. Fluorescent images were background-corrected by subtracting autofluorescence intensities of untransfected cells (or background with no cells) from the emission intensities of fluorescent cells expressing reporters. The ratios of cyan to yellow emissions were then calculated at different time points and normalized by dividing all ratios by the emission ratio just prior to stimulation therefore setting the basal emission ratio to 1.

[2] = test system: cAMP; test: 96-well live cell plate reading of HEK293 cells expressing ICUE3; settings: for effect on ISO-stimulated response of ICUE3: PRO 10 μM
Protocol: Plate reading used a 420DF20 excitation filter and two emission filters (470DF40 for cyan and 535DF25 for yellow). A baseline was established in three cycles, each consisting of a full plate reading of yellow intensity, followed by a reading of cyan intensity. Cells were then treated with isoproterenol (ISO; Aldrich), forskolin (Calbiochem), H89, propranolol, and 3-isobutyl-1-methylxanthine (IBMX) as indicated. Readings were taken in six or twenty additional cycles. Each cycle lasted 60 to 145 sec. Baseline FRET ratios were calculated as the average ratio of yellow/cyan for each well before the addition of drug. FRET change was calculated as the percent increase of FRET ratio over baseline for each well during a given cycle. The FRET changes of all wells having undergone the same drug treatment were then averaged within each cycle, and that cycle was correlated with time.
Live cell plate reading. HEK293 cells were transfected with cDNA encoding ICUE reporters using calcium phosphate at 40% confluency and allowed to grow for 40 hours. Cells were then trypsinized and plated in a Costar 3603 96-well assay plate (Coming) at a density of 150,000 cells per well. After incubation for another 24 hours, cells were washed once with HBSS and left in 150 μl HBSS at 20-25° C. Fluorescence reading was taken on a FLUOstar OPTIMA fluorescence microplate reader (BMG Labtechnologies Inc.) using a 420DF20 excitation filter and two emission filters (470DF40 for cyan and […] for yellow). A baseline was established in three cycles, each consisting of a full plate reading of yellow intensity, followed by a reading of cyan intensity. Each cycle lasted between 64 and 145 seconds. Readings were taken in additional cycles. FRET change was calculated as the percent increase of emission ratios (cyan-to-yellow) over baseline for each well during a given cycle. To assess the efficacy of the assay, several statistical parameters were calculated, including Z factor, coefficient of variation, and signal-to-noise ratio (Zhang et al., J. Biomol. Screen. 4, 67-73, 1999).

[3] = test system: cAMP; test: High throughput 96-well plate assay using ICUE2 stable HEK293 cells; settings: 1 μM ISO, 100 μM IBMX, 50 μM FSK
Protocol: HEK293 cells which stably express ICUE2 (“ICUE2 stable HEK293 cells”) were grown to confluency in 10 cm dishes in DMEM, 10% FBS, 1% penicillin/streptomycin, and 250 μg/ml G418. HEK-293 cells were transfected with cDNA encoding ICUE2 using calcium phosphate at 40% confluency and allowed to grow for 40 hours. Cells were removed from the dish using 0.05% trypsin, spun down, and replaced with fresh media. ICUE2 stable HEK293 cells were counted on a hemocytometer using trypan blue stain. One hundred fifty thousand (150,000) cells were plated per well on a 96-well clear bottom assay plate in a total of 0.2 ml of media per […] and allowed to double once. Media was removed, cells were washed with Hanks buffered salt solution (HBSS) and then covered with 0.05 ml of HBSS per well. In a separate sterile plate, appropriate drugs were added to each well containing HBSS for a total volume of 0.05 ml. […] A baseline was established in three cycles, each consisting of a full plate reading of yellow intensity, followed by a reading of cyan intensity. Cells were then treated with isoproterenol (ISO; […] Readings were taken in six or twenty additional cycles. […] Baseline FRET ratios were calculated as the average ratio of yellow/cyan for each well before the addition of drug. FRET change was calculated as the percent increase of FRET ratio over baseline for each well during a given cycle. The FRET changes of all wells having undergone the same drug treatment were then averaged within each cycle, and that cycle was correlated with time.

[4] = 50 μM FSK, 10 μM PRO, 10 μM H89
[5] = plasma membrane-targeted ICUE1, 10 μM PGE1
[6] = ICUE1, 10 μM propranolol added after isoproterenol response reached plateau

In the case of `CO[C@@H]1[C@@H]2OP(=O)(O)OC[C@H]2O[C@H]1n1c(Sc2ccc(Cl)cc2)nc2c(N)ncnc21` [8-pCPT-2′-O-Me-cAMP, 8-(4-chloro-phenylthio)-2′-O-methyl adenosine 3′,5′-monophosphate], the “increase in the ratio of cyan to yellow emissions (FRET response)” value [1] is reported as 12.8%±0.9 and the “time to produce a half-maximal increase in emission ratios (t1/2)” value ([1]; ICUE1, 300 μM) is reported as 10 to 15 min.

For `COc1cc(COP2(=O)OCC3OC(n4cnc5c(N)ncnc54)C(O)C3O2)c([N+](=O)[O-])cc1OC` (stereo not drawn) [DMNB-cAMP, P-(4,5-dimethoxy-2-nitrobenzyl) adenosine 3′,5′-monophosphate], the “increase of emission ratio after UV uncaging” value ([1]; ICUE1, 100 μM DMNB-cAMP for 3 minutes, UV flash of 5 seconds) was 4.7%±0.7 and the “time of emission ratio increase after UV uncaging” value ([1]; ICUE1, 100 μM DMNB-cAMP, UV flash of 5 seconds) was 15 to 30 s.

In the case of `O=S(=O)(NCCNC/C=C/c1ccc(Br)cc1)c1cccc2cnccc12` [H89], the “effect on FSK-stimulated response of ICUE3” value [2, 4] is reported as “did not diminish the response of ICUE3; also recorded: appeared to increase the response amplitude”.

In the case of `CC(C)Cn1c(=O)n(C)c(=O)c2[nH]cnc21` [IBMX, 3-isobutyl-1-methylxanthine], the “effect on ISO-stimulated response of ICUE3” value ([2]; 1 μM ISO, 100 μM IBMX) is reported as “sustained the response and increased its amplitude” and the “character of ICUE2 response (in words)” value [3] is reported as “increased the amplitude and sustained the responses”.

With `CCCCC[C@H](O)/C=C/[C@H]1[C@H](O)CC(=O)[C@@H]1CCCCCCC(=O)O` [PGE1, Prostaglandin E1] the “increase in the ratio of cyan to yellow emissions (FRET response)” value [1] was 13.3%±0.9, the “FRET response in the nucleus” value ([1]; NLS-ICUE1, 10 μM PGE1) was 3.4%±0.4 and the “emission ratio increase at the plasma membrane” value [1, 5] was 12.6%±0.9. For the same molecule, the “time of emission ratio increase at the plasma membrane” value [1, 5] was 2 to 3 min.

`CC(C)NCC(O)COc1cccc2ccccc12` (stereo not drawn) [propranolol] was tested, and the “Average percent FRET response ± standard deviation, 0 sec.” value ([2]; 0 sec., HEK293 cells expressing ICUE3, 1 μM ISO, 50 μM FSK, 10 μM PRO, 100 μM IBMX, 10 μM H89) was 7.61% ± 3.19%, the “effect on ISO-stimulated response of ICUE3” value ([2]; 1 μM ISO, 100 μM IBMX) was “inhibited” and the “effect on FSK-stimulated response of ICUE3” value [2, 4] was “had no effect”. For the same molecule, the “Average percent FRET response ± standard deviation, 145 sec.” value ([2]; 145 sec., HEK293 cells expressing ICUE3, 1 μM ISO, 50 μM FSK, 10 μM PRO, 100 μM IBMX, 10 μM H89) was 8.1% ± 1.38%, the “Average percent FRET response ± standard deviation, 290 sec.” value ([2]; 290 sec., HEK293 cells expressing ICUE3, 1 μM ISO, 50 μM FSK, 10 μM PRO, 100 μM IBMX, 10 μM H89) was 6.54% ± 1.37% and the “Average percent FRET response ± standard deviation, 435 sec.” value ([2]; 435 sec., HEK293 cells expressing ICUE3, 1 μM ISO, 50 μM FSK, 10 μM PRO, 100 μM IBMX, 10 μM H89) was 3.73% ± 0.911%. For the same molecule, the “Average percent FRET response ± standard deviation, 580 sec.” value ([2]; 580 sec., HEK293 cells expressing ICUE3, 1 μM ISO, 50 μM FSK, 10 μM PRO, 100 μM IBMX, 10 μM H89) was 2.57% ± 1.33%, the “Average percent FRET response ± standard deviation, 725 sec.” value ([2]; 725 sec., HEK293 cells expressing ICUE3, 1 μM ISO, 50 μM FSK, 10 μM PRO, 100 μM IBMX, 10 μM H89) was 1.83% ± 1.06% and the “effect on isoproterenol-stimulated FRET response” value ([1]; ICUE1, HEK293 cells, propranolol present) was “prevented the isoproterenol-stimulated response”. For the same molecule, the “time of full recovery of emission ratio” value [1, 6] was 6 to 8 min and the “time of initial decrease in emission ratio of cyan to yellow” value [1, 6] was 2 to 3 min.

B1: P350-A501: ECFP and citrine fused with Epac2 domain, amino acids 350-501 of SEQ ID NO:20 (protein, listed as Mus musculus)
chain: ELLHIKALSHLSTTVKRELAGVLIFESHAKGGTVLFNQGEEGTSWYIILKGSVNVVIYGKGVVCTLHEGDDFGKLALVNDAPRAASIVLREDNCHFLRVDKEDFNRILRDVEANTVRLKEHDQDVLVLEKVPAGNRAANQGNSQPQQKYTVM
modifications: fused between ECFP and citrine
In the case of B1, the “increase in emission ratio of cyan to yellow upon cAMP elevations” value [1] is reported as “did not show a cAMP-dependent FRET change”.

B2: T316-A501: ECFP/citrine reporter with Epac2 amino acids 316-501 of SEQ ID NO:20 (protein, listed as Mus musculus)
chain: MLLLSQMGPDAHMRMILRKPPGQRTVDDLEIIYDELLHIKALSHLSTTVKRELAGVLIFESHAKGGTVLFNQGEEGTSWYIILKGSVNVVIYGKGVVCTLHEGDDFGKLALVNDAPRAASIVLREDNCHFLRVDKEDFNRILRDVEANTVRLKEHDQDVLVLEKVPAGNRAANQGNSQPQQKYTVM
modifications: fused between ECFP and citrine
With B2 the “increase in emission ratio of cyan to yellow upon cAMP elevations” value [1] was 5%.
